Experimental findings from ChEMBL document CHEMBL3351285, “Synthesis of chlorinated flavonoids with anti-inflammatory and pro-apoptotic activities in human neutrophils” (Eur J Med Chem, 2014) are described below.

Where only a bound is given, the exact number is not on record here.

The subject of data set [1] is Neutrophil. The experiment in a line: Induction of apoptosis in human neutrophils assessed as early apoptotic cells at 50 uM after 4 hrs by Annexin-V-FLUOS staining based flow cytometry in presence of Z-DEVD-FMK caspase 3 (reference value: 10.1%). The data set is classed as functional. (Flow cytometry measures light scatter and fluorescence of single cells or particles in a stream.)

Data set [2] relates to Neutrophil. Description: Induction of apoptosis in human neutrophils assessed as viable cells at 50 uM after 4 hrs by Annexin-V-FLUOS staining based flow cytometry (reference value: 89.8%). The format is functional. The conditions noted are these: read-out: Activity.
The subject of data set [3] is Neutrophil. Description: Induction of apoptosis in human neutrophils assessed as late apoptotic cells at 50 uM after 4 hrs by Annexin-V-FLUOS staining based flow cytometry (reference value: 0.5%). The format is functional.
For data set [4], the system named is Neutrophil. Description: Inhibition of PMA-induced oxidative burst in human neutrophils by APF assay. The data set is classed as functional, cell-based.
The subject of data set [5] is Neutrophil. The experiment in a line: Induction of apoptosis in human neutrophils assessed as late apoptotic cells at 50 uM after 4 hrs by Annexin-V-FLUOS staining based flow cytometry in presence of Z-DEVD-FMK caspase 3 (reference value: 0.8%). The format is functional.
The nature of data set [6]: Cytotoxicity against human neutrophils assessed as cell viability at 50 uM after 4 hrs by trypan blue assay. The data set is classed as cell-based, Neutrophil. Particulars: read-out: Activity.
In data set [7] the test system is Neutrophil. The experiment in a line: Induction of apoptosis in human neutrophils assessed as early apoptotic cells at 50 uM after 4 hrs by Annexin-V-FLUOS staining based flow cytometry (reference value: 9.7%). The format is functional.
The subject of data set [8] is Neutrophil. Description: Inhibition of PMA-induced oxidative burst in human neutrophils by chemiluminescence assay. The data set is classed as functional, cell-based.
In data set [9] the test system is Neutrophil. The experiment in a line: Induction of apoptosis in human neutrophils assessed as necrotic cells at 50 uM after 4 hrs by Annexin-V-FLUOS staining based flow cytometry in presence of Z-DEVD-FMK caspase 3 (reference value: 0.0%). The format is functional.
In data set [10] the test system is Neutrophil. The experiment in a line: Induction of apoptosis in human neutrophils assessed as viable cells at 50 uM after 4 hrs by Annexin-V-FLUOS staining based flow cytometry in presence of Z-DEVD-FMK caspase 3 (reference value: 89.0%). The data set is classed as functional. Particulars: read-out: Activity.
Data set [11] relates to Neutrophil. The experiment in a line: Induction of apoptosis in human neutrophils assessed as necrotic cells at 50 uM after 4 hrs by Annexin-V-FLUOS staining based flow cytometry (reference value: 0.1%). The data set is classed as functional.
Data set [12] concerns Neutrophil. Description: Inhibition of PMA-induced oxidative burst in human neutrophils by amplex red assay. The format is functional, cell-based.
Data set [13] relates to Neutrophil. The experiment in a line: Inhibition of PMA-induced oxidative burst in human neutrophils at 50 uM by APF assay. The format is functional.
Data set [14] deals with Neutrophil. The experiment in a line: Inhibition of PMA-induced oxidative burst in human neutrophils at 50 uM by chemiluminescence assay. The format is functional.
The test system of data set [15] is Neutrophil. Description: Inhibition of PMA-induced oxidative burst in human neutrophils at 50 uM by amplex red assay. The format is functional.

For the compound `O=c1cc(-c2ccc(O)c(O)c2)oc2c(Cl)c(O)cc(O)c12`, the Activity in [1] stood at 9.6%; in data set [3], 0.5%; in data set [5], 1%; in data set [7] it was 25.3%; in data set [9] it was 0%; in [11] it was 0%. The viability at 50 µM in data set [2] was 74.1%; in [10], 89.4%. The IC50 was 2.6 µM in [4], 2.6 µM in data set [8] and 1.6 µM in data set [12]. Besides, the viability at 4 h, 50 µM in data set [6] is 98%.

`O=c1cc(-c2ccc(O)c(O)c2)oc2c(Cl)c(O)c(Cl)c(O)c12`: in data set [2], the viability at 50 µM was found to be 83.7%. Moreover, the Activity amounted to 0.9% in [3], 15.3% in data set [7] and 0.1% in [11]. The figures for the IC50 in data set [4], in data set [8] and in [12] were 7.2 µM, 3.4 µM and 6.2 µM, respectively. In data set [6], the viability at 4 h, 50 µM came to 98%.

Turning to `O=c1c(Cl)c(-c2ccc(O)c(O)c2)oc2cc(O)cc(O)c12`, the IC50 in [4] was 0.4 µM; in data set [8], 2 µM; in data set [12], 1.4 µM. Moreover, in data set [6], the viability at 4 h, 50 µM was determined as 98%.

In the case of `O=c1c(Cl)c(-c2ccc(O)c(O)c2)oc2c(Cl)c(O)cc(O)c12`, the 50% inhibitory concentration (IC50) in data set [4] is 1.8 µM; in data set [8], 4.6 µM; in data set [12], 1.7 µM. For the same compound, the viability at 4 h, 50 µM in [6] was 98%.

Turning to `O=c1cc(-c2ccccc2)oc2ccccc12` [FLAVONE], the inhibition at 50 µM in data set [13], in data set [14] and in data set [15] was less than 40% each time. In addition, the viability at 4 h, 50 µM in [6] came to 98%.

For the compound `O=c1cc(-c2ccc(O)c(O)c2)oc2cc(O)cc(O)c12` [LUTEOLIN], the viability at 50 µM in data set [2] turned out to be 78.6%. The Activity in data set [3] was 1.1%; in data set [7] it was 20.2%; in data set [11], 0.1%. The IC50 stood at 2.2 µM in data set [4], 5.2 µM in [8] and 1.7 µM in data set [12]. The viability at 4 h, 50 µM in data set [6] is 98%.

With `O=c1c(O)c(-c2ccc(O)c(O)c2)oc2cc(O)cc(O)c12` [QUERCETIN], in data set [2], the viability at 50 µM turned out to be 84.7%. The values for the Activity in data set [3], in [7] and in [11] were 0.6%, 14.6% and 0.1%, respectively. Also, the IC50 in [4] stood at 1.8 µM; in data set [8] it was 2.8 µM; in [12], 2.7 µM. Further, the viability at 4 h, 50 µM in data set [6] is 98%.

In general, IC50 refers to the concentration that gives 50% inhibition. A higher IC50 goes with lower potency. The inhibition is how much of the control response was suppressed. Low readings indicate little suppression, high ones strong suppression.
